# Data: patent publication US11458122B2, “Methods for treating diseases and nerve injuries” (CHILDREN'S HOSPITAL MEDICAL CENTER, priority 2017, dated 2022)
# Key:
# [1] = test system: Egr2 expression in primary rat SCs; experiment: Small molecule epigenetic compound screening: Egr2 expression by qRT-PCR; assay type: cell-based; settings: 8 hours, read-out: Egr2 expression over vehicle treatment
# Protocol: Each compound in the Epigenetics compound library (Cayman, 11076) was diluted to a final concentration of 5 μM in the medium containing DMEM/0.5% FBS with L-glutamine and penicillin/streptomycin. SCs were treated with diluted compounds for 8 hours. Treated SCs were washed with PBS and then treated with SingleShot Cell Lysis Kite (172-5080, BioRad) following the manufacturer's instructions. The cell lysates from each well were collected for qRT-PCR by using iTaq Universal SYBR Green One-Step Kit (BioRad 172-5150,) following the instructions. Each compound was tested in triplicate.
# EGR2 is a pro-myelinating regulator that serves an indicator of myelinogenic potential. We developed an unbiased gene expression-based assay using real-time quantitative PCR indexing of Egr2 to identify inhibitors of epigenetic enzymes that […] SC maturation. Cultured rat SCs were treated a library of epigenetics compounds targeting enzymes including methyltransferases, demethylases, histone acetyltransferases, histone deacetylases (HDACs), and acetylated histone regulators.
# [2] = test system: SCs isolated from neonatal rat sciatic nerve; experiment: SC cultures treated with HDAC inhibitors: morphology, MPZ/phalloidin immunostaining, qRT-PCR; settings: 24 hours
# [3] = Experimental autoimmune encephalomyelitis (EAE) induced by MOG35-55; assay type: in vivo, mice
# Protocol: 8-week-old female C57BL/6 (Charles River lab) mice received injections of 200 μg of myelin oligodendrocyte glycoprotein (MOG) 35-55 peptide emulsified in complete Freund's adjuvant (BD Biosciences), supplemented with 600 μg of Mycobacterium tuberculosis (strain H37Ra; BD Biosciences). 24 and 72 hours after immunization, mice were given two intraperitoneal injections of 400 ng of pertussis toxins (List Biological Laboratories, Cat # NC9675592). EAE onset was monitored daily and scored with Clinical scores (0=healthy; 1=flaccid tail; 2=ataxia and/or paresis of hindlimbs; 3=paralysis of hindlimbs and/or paresis of forelimbs; 4=tetraparalysis; 5=moribund or death).
# In the experimental autoimmune encephalomyelitis (EAE) demyelinating mouse model induced by myelin peptide MOG35-55, the most commonly used animal model of multiple sclerosis (BITTNER et al., “Myelin oligodendrocyte glycoprotein (MOG35-55) induced experimental autoimmune encephalomyelitis (EAE) in C57BL/6 mice” J Vis Exp. (2014) Vol. 86, Article 51275 (doi: 10.3791/51275)), HDAC3 inhibitor administration improved motor function reflected in clinical scores as well as in remyelination.
# [4] = cited from earlier work
# injured sciatic nerves [5] = experiment: Sciatic nerve transection injury: remyelination by immunostaining and EM; settings: for regeneration tracks within the tissue bridge: Dpi 6; for percentages of MBP myelinating axons entering the bridge: Dpi 7 vs vehicle; for myelin sheath thickness in the regenerating bridge / percentage of Ki67+ cells / proportion of EGR2+ maturing SCs in the tissue bridge: Dpi 14; for myelinated axons: Dpi 14 vs vehicle; for myelin thickness of the intact sciatic nerves: uninjured nerves of adult mice, Dpi 35
# injured sciatic nerves [6] = experiment: Compound muscle action potential recording after sciatic nerve transection; assay type: in vivo, mice; settings: for CMAP amplitude / conduction velocity: Dpi 18, two weeks treatment
# Protocol: CMAPs were amplified and obtained using a Micro 1401 data acquisition unit and analyzed using Spike2 software (<<http://ced.co.uk/products/spkovin>>). Three successive electrical stimulations of the sciatic nerve at 2 mA (0.25-0.5 Hz, 0.1 ms duration) were initiated immediately proximal to the tibial, sural and common peroneal branches via a stimulus isolator connected to the Micro 1401. Conduction velocity was calculated after determining the latency of CMAP onset relative to the stimulus artifact induced by electrical stimulation of the sciatic nerve and the distance between recording and stimulating electrodes measured directly on the nerve. Peak CMAP amplitude and CMAP duration were calculated from each stimulation paradigm. The average of the stimulations of the sciatic nerve for each paradigm were obtained and then averaged across animals.
# At Dpi 18, CMAP activity was barely detectable after electrical stimulation of vehicle-treated injured nerves.
# rat SC cultures = experiment: Western blotting of PI3K/AKT/ERK signalling and Ac-PTEN in SC cultures; assay type: cell-based
# Protocol: (§1) For western blotting, the perineurium and epineurium were removed from sciatic nerves prior to snap-freezing and storage at −80° C. Sciatic nerves and rat SCs were lysed in RIPA buffer, containing protease and phosphatase inhibitors. […] GAPDH (Millipore MAB374) was used as an input control. […] Corresponding secondary antibodies conjugated to HRP were from Jackson ImmunoResearch Laboratories (catalog numbers 111-035-144 and 111-035-003).
# The hypermyelinating phenotype observed in Hdac3-cKO mice resembles that of mice overexpressing NRG1 type III. […] Indeed, we detected an increase in the levels of phosphorylated AKT, PI3K, and ERK in Hdac3-cKO nerves at P13 compared to controls (FIG. 5B).
# (§2) Treatment of primary rat SCs with the recombinant NRG1 type III for 1 hour led to upregulation of HDAC3 expression (FIG. 5F). This effect appeared to be occluded by a NRG1 signaling inhibitor gefitinib (FIG. 5G), which blocks the signaling of ERBB2/3 receptors activated by NRG1 engagement. Conversely, HDAC3 overexpression inhibited phosphorylation of AKT and ERK induced by NRG1 in SCs (FIG. 5E).
# optic nerve [7] = experiment: Optic nerve crush injury: CD68 inflammatory microglia/macrophage cells; assay type: in vivo, mice; settings: 10 mg/kg i.p., 10 dpi vs DMSO
# From the text: Crush injury to the optic nerves of mice (wild type mice) was accomplished with the aid of a pair of cross-action forceps, applying a crush injury to the optic nerve at about 2 mm from the eyeball for about 3 seconds in wildtype mice.
# [8] = PDA106 100 mg/kg, RGFP966 10 mg/kg
# sciatic nerves = experiment: HDAC3 inhibitors in neonatal mice: developmental myelination of sciatic nerves
# optic nerve [9] = experiment: Optic tract transection: axon regeneration by CTB tracing; assay type: in vivo, mice; settings: 10 mg/kg, 28 days after injury
# Protocol: Axon regeneration was assayed by examining axonal fibers labeled with the anterograde tracer, cholera toxin β (CTB, shown in white color), in the optic nerve sections across the lesion site.
# [10] = test system: HDAC3 expression in primary rat SCs; experiment: HDAC3 expression in primary SCs treated with NRG1 and gefitinib; assay type: cell-based; settings: combined with NRG1
# Protocol: as §1
# PCR primer sequences are available upon request.
# as §2
smiles,measurement,setting,value
"CN(C)c1ccc(C(=O)NCCCCCC(=O)NO)cc1 [CAY10398, 4-(dimethylamino)-N-[6-(hydroxyamino)-6-oxohexyl]-benzamide]",fold induction at 5 µM,[1],≥ 5
"CCOC(=O)CCNc1cc(N2CCc3ccccc3CC2)nc(-c2ccccn2)n1 [GSK-J4, Ethyl 3-((6-(4,5-dihydro-1H-benzo[d]azepin-3(2H)-yl)-2-(pyridin-2-yl)pyrimidin-4-yl)amino)propanoate]",fold induction at 5 µM,[1],≥ 5
"Clc1ccc(N/N=C(\c2ccccc2)c2ccccn2)nc1 [JIB-04, (E)-N-(5-Chloro-pyridin-2-yl)-N'-(phenyl-pyridin-2-yl-methylene)-hydrazine]",fold induction at 5 µM,[1],≥ 5
"O=C(/C=C/c1ccc(CN(CCO)CCc2c[nH]c3ccccc23)cc1)NO [LAQ824, (2E)-N-hydroxy-3-[4-[[(2-hydroxyethyl)[2-(1H-indol-3-yl)ethyl]amino]methyl]phenyl]-2-propenamide]",fold induction at 5 µM,[1],≥ 5
COc1ccc(Cn2ccc3ccc(C(=O)NO)cc32)cc1 [PCI34051],SC process extension / morphology,[2],minimal effects
"Cc1ccc(NC(=O)CCCCCC(=O)Nc2ccccc2N)cc1 [PDA106, N1-(2-Aminophenyl)-N7-(4-methylphenyl)-heptanediamide]",clinical score (motor function),[3]; 100 mg/kg i.p. daily for 10 days from PID 15,reduces clinical score
same,remyelination in the spinal cord / oligodendrocyte myelination in the CNS,[3]; EM of lesion areas at PID 25,promotes oligodendrocyte myelination
same,half-life,[4],~8 h
same,regeneration tracks within the tissue bridge,injured sciatic nerves [5],opaque regeneration tracks were observed
same,percentages of MBP myelinating axons entering the bridge,injured sciatic nerves [5],significantly higher
same,myelin sheath thickness in the regenerating bridge,injured sciatic nerves [5],thicker myelin sheaths
same,percentage of Ki67+ cells,injured sciatic nerves [5],decreased
same,proportion of EGR2+ maturing SCs in the tissue bridge,injured sciatic nerves [5],increased
same,myelinated axons,injured sciatic nerves [5],increase
same,myelin thickness of the intact sciatic nerves,injured sciatic nerves [5],does not affect
same,CMAP amplitude,injured sciatic nerves [6],increase
same,conduction velocity,injured sciatic nerves [6],increase
same,level of acetylated PTEN,rat SC cultures; SC cultures,increased
same,"p-AKT, p-PI3K and p-ERK levels",rat SC cultures; purified rat SCs,elevation
same,p-ERK levels,"rat SC cultures; rat SCs, combined treatment with NRG1",further enhanced
same,p-ERK and p-AKT levels,"rat SC cultures; rat SCs, single treatment",increased
same,SC process extension / morphology,[2],expansion of cellular processes
"Nc1cc(F)ccc1NC(=O)/C=C/c1cnn(C/C=C/c2ccccc2)c1 [RGFP966, (2E)-N-(2-Amino-4-fluorophenyl)-3-[(2E)-1-(3-phenyl-2-propen-1-yl)-1H-pyrazol-4-yl]-2-propenamide]",number of CD68 inflammatory microglia/macrophage cells at the injury site,optic nerve [7],decreased
same,half-life,[4],~1 h
same,tolerability / side effects in mice,[8],without adverse effects on mice
same,regeneration tracks within the tissue bridge,injured sciatic nerves [5],opaque regeneration tracks were observed
same,percentages of MBP myelinating axons entering the bridge,injured sciatic nerves [5],significantly higher
same,myelin sheath thickness in the regenerating bridge,injured sciatic nerves [5],thicker myelin sheaths
same,percentage of Ki67+ cells,injured sciatic nerves [5],decreased
same,proportion of EGR2+ maturing SCs in the tissue bridge,injured sciatic nerves [5],increased
same,myelinated axons,injured sciatic nerves [5],increase
same,myelin thickness of the intact sciatic nerves,injured sciatic nerves [5],does not affect
same,percentage of myelinated axons,sciatic nerves; P7 and P15,increase
same,number of EGR2-expressing mature SCs in sciatic nerves,"sciatic nerves; neonatal mice, daily from P1, P7",elevation
same,"expression of myelination-associated genes Prx, Mbp, Mpz, Egr2",sciatic nerves; sciatic nerves at P7 vs vehicle,significantly elevated
same,CMAP amplitude,injured sciatic nerves [6],increase
same,conduction velocity,injured sciatic nerves [6],increase
same,motor nerve function (CMAP recordings),injured sciatic nerves [6]; Dpi 35,improved motor nerve function
same,"functional recovery (conduction velocity, CMAP amplitude and duration)","injured sciatic nerves [6]; aging mice 10-12 months, Dpi 35",enhances functional recovery
same,axon regeneration across the lesion site,optic nerve [9],long-distance axon regeneration
same,SC process extension / morphology,[2],expansion of cellular processes
"O=C(CCCCCCC(=O)Nc1ccccc1)NO [SAHA, N-hydroxy-N'-phenyl-octanediamide]",fold induction at 5 µM,[1],≥ 5
"COc1cc2c(NC3CCN(CC4CCCCC4)CC3)nc(N3CCCN(C(C)C)CC3)nc2cc1OCCCN1CCCCC1 [UNC0631, N-[1-(cyclohexylmethyl)-4-piperidinyl]-2-[hexahydro-4-(1-methylethyl)-1H-1,4-diazepin-1-yl]-6-methoxy-7-[3-(1-piperidinyl)propoxy] 4-quinazolinamine]",fold induction at 5 µM,[1],≥ 5
"COc1cc2c(NC3CCN(C4CCCCC4)CC3)nc(N3CCCN(C(C)C)CC3)nc2cc1OCCCN1CCCCC1 [UNC0646, N-(1-Cyclohexyl-4-piperidinyl)-2-[hexahydro-4-(1-methylethyl)-1H-1,4-diazepin-1-yl]-6-methoxy-7[3-(1-piperidinyl)propoxy]-4-quinazolinamine]",fold induction at 5 µM,[1],≥ 5
"CCC(=O)CCCCC[C@@H]1NC(=O)[C@H]2CCCCN2C(=O)[C@H]([C@@H](C)CC)NC(=O)[C@H](Cc2cn(OC)c3ccccc23)NC1=O [apicidin, Cyclo[(2S)-2-amino-8-oxodecanoyl-1-methoxy-L-tryptophyl-L-isoleucyl-(2R)-2-piperidinexcarbonyl]]",fold induction at 5 µM,[1],≥ 5
COc1cc2ncnc(Nc3ccc(F)c(Cl)c3)c2cc1OCCCN1CCOCC1 [gefitinib],NRG1-induced upregulation of HDAC3 expression,[10],occluded
